Values joined by “and” are separate entries in the source; they are usually repeats but may differ in a detail not shown here. Identical values can stand only once. Like-named read-outs stand apart in the source and are kept apart here.
Legend:
SARS2 = type: cell-based, SARS-CoV-2; conditions: for Infection Data: Percentage Infection Relative to Appropriate DMSO Control: avg background subtraction, replicate wells; for Infection Data: Average, Mean: average of Exp 1-3 (SMW475, SMW477, SMW478), n 9; for Percentage Inhibition Average 1 μM / Screening data (Relative infection to DMSO controls) Average 1 μM: SARS2, 1 μM; for Screening data (Relative infection to DMSO controls) Average 1 μM / Screening data (Relative infection to DMSO controls) Average 5 μM / Screening data (Relative infection to DMSO controls) Average 10 μM / Screening data (Relative infection to DMSO controls) Average 25 μM / Screening data (Relative infection to DMSO controls) Average 50 μM / Average (relative infection to DMSO over the 5 tested concentrations): 100=DMSO control; for Percentage Inhibition Average 5 μM / Screening data (Relative infection to DMSO controls) Average 5 μM: SARS2, 5 μM; for Percentage Inhibition Average 10 μM / Screening data (Relative infection to DMSO controls) Average 10 μM: SARS2, 10 μM; for Percentage Inhibition Average 25 μM / Screening data (Relative infection to DMSO controls) Average 25 μM: SARS2, 25 μM; for Percentage Inhibition Average 50 μM / Screening data (Relative infection to DMSO controls) Average 50 μM: SARS2, 50 μM; for Average (relative infection to DMSO over the 5 tested concentrations): SARS2, average over 1 to 50 uM; for Percentage Infection Relative to Appropriate DMSO Control with Avg Background Subtraction: single well
cells (nuclei count) = conditions: for Toxicity Data: Average, Mean: average of Exp 1-3 (SMW475, SMW477, SMW478), n 9; for Relative cell count to DMSO controls, Average 1 μM / Relative cell count to DMSO controls, Average 5 μM / Relative cell count to DMSO controls, Average 10 μM / Relative cell count to DMSO controls, Average 25 μM / Relative cell count to DMSO controls, Average 50 μM: toxicity data, 100=DMSO control; for Relative cell count to DMSO controls, Average (for correlation analysis): average value over the 5 tested concentrations (1 to 50 uM)

## Cc1cc(CN(CCN(C)C)Cc2ccco2)sc1Br [SILCS15]
SARS2; 1 uM, Exp 1 (SMW475)
  Infection Data: Percentage Infection Relative to Appropriate DMSO Control: 117.62% and 124.56% and 121.12%
SARS2; 1 uM, Exp 2 (SMW477)
  Infection Data: Percentage Infection Relative to Appropriate DMSO Control: 103.78% and 103.22% and 100.05%
SARS2; 1 uM, Exp 3 (SMW478)
  Infection Data: Percentage Infection Relative to Appropriate DMSO Control: 107.90% and 99.19% and 97.03%
SARS2; 1 uM
  Infection Data: Average, Mean: 108.27%
SARS2; 5 uM, Exp 1 (SMW475)
  Infection Data: Percentage Infection Relative to Appropriate DMSO Control: 131.70% and 141.65% and 132.54%
SARS2; 5 uM, Exp 2 (SMW477)
  Infection Data: Percentage Infection Relative to Appropriate DMSO Control: 102.31% and 90.53% and 98.90%
SARS2; 5 uM, Exp 3 (SMW478)
  Infection Data: Percentage Infection Relative to Appropriate DMSO Control: 98.36% and 110.89% and 93.32%
SARS2; 5 uM
  Infection Data: Average, Mean: 111.13%
SARS2; 10 uM, Exp 1 (SMW475)
  Infection Data: Percentage Infection Relative to Appropriate DMSO Control: 79.51% and 121.98% and 93.64%
SARS2; 10 uM, Exp 2 (SMW477)
  Infection Data: Percentage Infection Relative to Appropriate DMSO Control: 75.81% and 72.41% and 82.10%
SARS2; 10 uM, Exp 3 (SMW478)
  Infection Data: Percentage Infection Relative to Appropriate DMSO Control: 111.15% and 106.59% and 85.32%
SARS2; 10 uM
  Infection Data: Average, Mean: 92.05%
SARS2; 25 uM, Exp 1 (SMW475)
  Infection Data: Percentage Infection Relative to Appropriate DMSO Control: 30.31% and 27.68% and 26.54%
SARS2; 25 uM, Exp 2 (SMW477)
  Infection Data: Percentage Infection Relative to Appropriate DMSO Control: 35.02% and 27.68% and 29.29%
SARS2; 25 uM, Exp 3 (SMW478)
  Infection Data: Percentage Infection Relative to Appropriate DMSO Control: 35.78% and 39.52% and 32.45%
SARS2; 25 uM
  Infection Data: Average, Mean: 31.59%
SARS2; 50 uM, Exp 1 (SMW475)
  Infection Data: Percentage Infection Relative to Appropriate DMSO Control: 23.93% and 15.87% and 20.00%
SARS2; 50 uM, Exp 2 (SMW477)
  Infection Data: Percentage Infection Relative to Appropriate DMSO Control: 18.29% and 18.14% and 19.12%
SARS2; 50 uM, Exp 3 (SMW478)
  Infection Data: Percentage Infection Relative to Appropriate DMSO Control: 20.62% and 25.98% and 33.79%
SARS2; 50 uM
  Infection Data: Average, Mean: 21.75%
SARS2
  Percentage Inhibition Average 1 μM: −8.27%
  Screening data (Relative infection to DMSO controls) Average 1 μM: 108.27
  Percentage Inhibition Average 5 μM: −11.13%
  Screening data (Relative infection to DMSO controls) Average 5 μM: 111.13
  Percentage Inhibition Average 10 μM: 7.95%
  Screening data (Relative infection to DMSO controls) Average 10 μM: 92.05
  Percentage Inhibition Average 25 μM: 68.41%
  Screening data (Relative infection to DMSO controls) Average 25 μM: 31.59
  Percentage Inhibition Average 50 μM: 78.25%
  Screening data (Relative infection to DMSO controls) Average 50 μM: 21.75
  Average (relative infection to DMSO over the 5 tested concentrations): 72.96
Cells (nuclei count); 1 uM
  Toxicity Data: Average, Mean: 105.96%
Cells (nuclei count)
  Relative cell count to DMSO controls, Average 1 μM: 105.96
  Relative cell count to DMSO controls, Average 5 μM: 104
  Relative cell count to DMSO controls, Average 10 μM: 107.75
  Relative cell count to DMSO controls, Average 25 μM: 115.74
  Relative cell count to DMSO controls, Average 50 μM: 65.19
  Relative cell count to DMSO controls, Average (for correlation analysis): 99.73
Cells (nuclei count); 5 uM
  Toxicity Data: Average, Mean: 104.00%
Cells (nuclei count); 10 uM
  Toxicity Data: Average, Mean: 107.75%
Cells (nuclei count); 25 uM
  Toxicity Data: Average, Mean: 115.74%
Cells (nuclei count); 50 uM
  Toxicity Data: Average, Mean: 65.19%

## Cc1ccc(CN(CCN(C)C)Cc2ccccc2)o1 [SILCS11]
SARS2
  SARS2 antiviral activity: improved activity over SILCS1
  Percentage Inhibition Average 1 μM: 24.29%
  Screening data (Relative infection to DMSO controls) Average 1 μM: 75.71
  Percentage Inhibition Average 5 μM: 21.46%
  Screening data (Relative infection to DMSO controls) Average 5 μM: 78.54
  Percentage Inhibition Average 10 μM: 45.84%
  Screening data (Relative infection to DMSO controls) Average 10 μM: 54.16
  Percentage Inhibition Average 25 μM: 64.99%
  Screening data (Relative infection to DMSO controls) Average 25 μM: 35.01
  Percentage Inhibition Average 50 μM: 79.69%
  Screening data (Relative infection to DMSO controls) Average 50 μM: 20.31
  Average (relative infection to DMSO over the 5 tested concentrations): 52.75
Cells (nuclei count)
  Relative cell count to DMSO controls, Average 1 μM: 111.01
  Relative cell count to DMSO controls, Average 5 μM: 106.15
  Relative cell count to DMSO controls, Average 10 μM: 120.55
  Relative cell count to DMSO controls, Average 25 μM: 105.91
  Relative cell count to DMSO controls, Average 50 μM: 80.38
  Relative cell count to DMSO controls, Average (for correlation analysis): 104.80
Cells (nuclei count); Average of Exp 1-3, 1 uM
  Toxicity Data, Average, Mean (relative to DMSO control): 111.01%
Cells (nuclei count); Average of Exp 1-3, 5 uM
  Toxicity Data, Average, Mean (relative to DMSO control): 106.15%
Cells (nuclei count); Average of Exp 1-3, 10 uM
  Toxicity Data, Average, Mean (relative to DMSO control): 120.55%
Cells (nuclei count); Average of Exp 1-3, 25 uM
  Toxicity Data, Average, Mean (relative to DMSO control): 105.91%
Cells (nuclei count); Average of Exp 1-3, 50 uM
  Toxicity Data, Average, Mean (relative to DMSO control): 80.38%

## CC1=C(C(=O)NCc2ccccc2)C(c2ccc(C)o2)NC(=O)N1 (stereo not shown) [SILCS69]
SARS2
  Percentage Inhibition Average 1 μM: 44.23%
  Screening data (Relative infection to DMSO controls) Average 1 μM: 55.77
  Percentage Inhibition Average 5 μM: 29.45%
  Screening data (Relative infection to DMSO controls) Average 5 μM: 70.55
  Percentage Inhibition Average 10 μM: 24.51%
  Screening data (Relative infection to DMSO controls) Average 10 μM: 75.49
  Percentage Inhibition Average 25 μM: −26.06%
  Screening data (Relative infection to DMSO controls) Average 25 μM: 126.06
  Percentage Inhibition Average 50 μM: −48.18%
  Screening data (Relative infection to DMSO controls) Average 50 μM: 148.18
  Average (relative infection to DMSO over the 5 tested concentrations): 95.21
Cells (nuclei count)
  Relative cell count to DMSO controls, Average 1 μM: 114.56
  Relative cell count to DMSO controls, Average 5 μM: 113.8
  Relative cell count to DMSO controls, Average 10 μM: 108.32
  Relative cell count to DMSO controls, Average 25 μM: 93.65
  Relative cell count to DMSO controls, Average 50 μM: 79.5
  Relative cell count to DMSO controls, Average (for correlation analysis): 101.97

## CCN(CC)CCN(Cc1ccc(C)o1)Cc1cccs1 [SILCS24]
SARS2; Average of Exp 1-3, n 9, 1 uM
  Infection Data, Average, Mean: 68.53%
SARS2; Average of Exp 1-3, n 9, 5 uM
  Infection Data, Average, Mean: 71.54%
SARS2; Average of Exp 1-3, n 9, 10 uM
  Infection Data, Average, Mean: 70.96%
SARS2; Average of Exp 1-3, n 9, 25 uM
  Infection Data, Average, Mean: 35.04%
SARS2; Average of Exp 1-3, n 9, 50 uM
  Infection Data, Average, Mean: 19.26%
SARS2; Exp 1 (SMW475), 1 uM
  Percentage Infection Relative to Appropriate DMSO Control with Avg Background Subtraction: 124.65% and 102.70% and 66.42%
SARS2; Exp 1 (SMW475), 5 uM
  Percentage Infection Relative to Appropriate DMSO Control with Avg Background Subtraction: 90.16% and 99.17% and 50.26%
SARS2; Exp 1 (SMW475), 10 uM
  Percentage Infection Relative to Appropriate DMSO Control with Avg Background Subtraction: 93.85% and 91.06% and 50.31%
SARS2; Exp 1 (SMW475), 50 uM
  Percentage Infection Relative to Appropriate DMSO Control with Avg Background Subtraction: 20.92% and 16.99% and 16.36%
SARS2; Exp 2 (SMW477), 1 uM
  Percentage Infection Relative to Appropriate DMSO Control with Avg Background Subtraction: 88.56% and 86.90% and 93.54%
SARS2; Exp 2 (SMW477), 5 uM
  Percentage Infection Relative to Appropriate DMSO Control with Avg Background Subtraction: 78.38% and 98.62% and 72.17%
SARS2; Exp 2 (SMW477), 10 uM
  Percentage Infection Relative to Appropriate DMSO Control with Avg Background Subtraction: 54.07% and 57.64% and 38.68%
SARS2; Exp 2 (SMW477), 50 uM
  Percentage Infection Relative to Appropriate DMSO Control with Avg Background Subtraction: 18.59% and 11.16% and 9.24%
SARS2; Exp 3 (SMW478), 10 uM
  Percentage Infection Relative to Appropriate DMSO Control with Avg Background Subtraction: 97.16% and 81.93% and 73.95%
SARS2
  Percentage Inhibition Average 1 μM: 31.47%
  Screening data (Relative infection to DMSO controls) Average 1 μM: 68.53
  Percentage Inhibition Average 5 μM: 28.46%
  Screening data (Relative infection to DMSO controls) Average 5 μM: 71.54
  Percentage Inhibition Average 10 μM: 29.04%
  Screening data (Relative infection to DMSO controls) Average 10 μM: 70.96
  Percentage Inhibition Average 25 μM: 64.96%
  Screening data (Relative infection to DMSO controls) Average 25 μM: 35.04
  Percentage Inhibition Average 50 μM: 80.74%
  Screening data (Relative infection to DMSO controls) Average 50 μM: 19.26
  Average (relative infection to DMSO over the 5 tested concentrations): 53.07
Cells (nuclei count)
  Relative cell count to DMSO controls, Average 1 μM: 133.02
  Relative cell count to DMSO controls, Average 5 μM: 124
  Relative cell count to DMSO controls, Average 10 μM: 120.3
  Relative cell count to DMSO controls, Average 25 μM: 96.21
  Relative cell count to DMSO controls, Average 50 μM: 76.48
  Relative cell count to DMSO controls, Average (for correlation analysis): 110.00
Cells (nuclei count); Average of Exp 1-3, n 9, 1 uM
  Toxicity Data, Average, Mean: 133.02%
Cells (nuclei count); Average of Exp 1-3, n 9, 5 uM
  Toxicity Data, Average, Mean: 124.00%
Cells (nuclei count); Average of Exp 1-3, n 9, 10 uM
  Toxicity Data, Average, Mean: 120.30%
Cells (nuclei count); Average of Exp 1-3, n 9, 25 uM
  Toxicity Data, Average, Mean: 96.21%
Cells (nuclei count); Average of Exp 1-3, n 9, 50 uM
  Toxicity Data, Average, Mean: 76.48%

Source: US20240132484A1, “BROAD SPECTRUM ANTIVIRAL COMPOUNDS TARGETING THE SKI COMPLEX” (priority 2020, published 2024)
